In US9616062B2, “Cyclin dependent kinase inhibitors and methods of use” (priority 2009, dated 2017):

Assays:
[1] = tested on: irradiated (6.5 Gy) wild type mice (FVB/n); assay: Myelosuppression assay: complete blood counts after sub-lethal irradiation, with or without erythropoietin; format: in vivo, mouse; conditions: PD0332991 150 mg/kg oral gavage just prior to irradiation, EPO at 72, 96, 120 h post-irradiation, day 17
Procedure: FIG. 1: CDK4/6 inhibition potentiates the efficacy of erythropoietin-mediated recovery of the erythroid cell lineage following DNA damage. Cohorts (8 mice per cohort) of irradiated (6.5 Gy) wild type mice (FVB/n) are given placebo, erythropoietin (EPO), a CDK4/6 inhibitor (PD0332991), or a combination of CDK4/6 inhibitor and EPO (PD0332991+EPO). Serial blood draws are performed at day 17 after treatment and complete blood counts assessed to determine the number of red blood cells, various leukocytes subpopulations, and platelets. The effect of treatment on platelets is shown in the panel on the upper left, red blood cells (RBC) in the panel on the upper right, hemoglobin (Hb) in the panel on the lower left, and hematocrit (HCT) in the panel on the lower right. Error bars represent +/−SEM. […]
Baseline complete blood cell (CBC) anaylsis was performed on a subset of mice prior to drug administration. […] Blood was analyzed using a Hemavet CBC-Diff Veterinary Hematology System (Drew Scientific Inc., Dallas, Tex., United States of America). […]
Cohorts of FVB wild type mice were given placebo or CDK4/6 inhibitor (PD0332991, 150 mg/kg oral gavage) just prior to receiving a sub-lethal dose of irradiation (6.5 Gcy). […] Complete blood counts (CBCs) were assessed to determine the number of red blood cells, various leukocytes subpopulations and platelets.

[2] = tested on: primary human renal proximal tubule epithelial cells; assay: Cell cycle analysis (propidium iodide, flow cytometry); format: cell-based; conditions: 16 hours
Procedure: Representative histograms of cell cycle analysis of Primary human renal proximal tubule epithelial cells treated with varying concentrations of PD0332991 for 16 hours. Cells were harvested, fixed, stained, and analyzed by flow cytometry. Data was fitted using Mod-Fit™ software from Verity (Verity Software House, Topsham, Me., United States of America).
Cell cycle analysis of Primary human renal proximal tubule epithelial cells treated with varying concentrations of PD0332991 for 16 hours. Cells were harvested, fixed, stained, and analyzed by flow cytometry. Data was fitted using Mod-Fit™ software from Verity (Verity Software House, Topsham, Me., United States of America). Corresponding % of cells in G1 (diamonds), G2/M (squares) and S (triangles) are shown on the graph.
Primary normal human renal proximal epithelial cells (American Type Culture Collection (ATCC), Manassas, Va., United States of America) were cultured in renal epithelial cell basal media supplemented with renal epithelial cell growth kit according to the manufacturer's recommendations. […] For the γH2AX assay, cells were fixed, permeabilized, and stained with anti-γH2AX as per γH2AX Flow Kit (Millipore, Billerica, Mass., United States of America). γH2AX levels were assessed by flow cytometry. Cell proliferation was assessed by seeding 1×10^3 cells per well in a 96-well tissue culture plate in 100 μL of growth medium. […]

[3] = tested on: primary human renal proximal tubule epithelial cells; assay: γH2AX flow cytometry assay of etoposide-induced DNA damage; format: cell-based; conditions: 0, 100 nM, 300 nM or 1 μM for 16 h, then 2.5 μM etoposide for 8 h
Procedure: Cells were pretreated for 16 hours with PD0332991 followed by 8 hours with etoposide (Etop). Cells were collected, fixed and stained with anti-γH2AX FITC and analyzed by flow cytometry. Data was analyzed using FlowJo (Treestar, Inc., Ashland, Oreg., United States of America). The % γH2AX positive cells are shown in the accompanying graph.
Primary normal human renal proximal epithelial cells (American Type Culture Collection (ATCC), Manassas, Va., United States of America) were cultured in renal epithelial cell basal media supplemented with renal epithelial cell growth kit according to the manufacturer's recommendations. […] For the γH2AX assay, cells were fixed, permeabilized, and stained with anti-γH2AX as per γH2AX Flow Kit (Millipore, Billerica, Mass., United States of America). γH2AX levels were assessed by flow cytometry. Cell proliferation was assessed by seeding 1×10^3 cells per well in a 96-well tissue culture plate in 100 μL of growth medium. […] At the end of the recovery period, cell number was quantified using CellTiter-Glo® (Promega, Fitchburg, Wis., United States of America) or WST-1 reagent (TaKaRa Bio USA, Madison, Wis., United States of America). Cellular cytotoxicity was assessed using the TOXILIGHT™ Bioassay kit (Lonza, Basel, Switzerland) which measures cytolysis by quantifying the release of Adenylate Kinase into the culture media. […]

CC(=O)c1c(C)c2cnc(Nc3ccc(N4CCNCC4)cn3)nc2n(C2CCCC2)c1=O [PD0332991, 6-acetyl-8-cyclopentyl-5-methyl-2-(5-piperazin-1-yl-pyridin-2-ylamino)-8H-pyrido-[2,3-d]-pyrimidin-7-one]
platelet counts (CBC) [1]: improved platelet counts | cell cycle arrest (G0/G1, G2/M, S fractions) ([2]; 0, 10 nM-1 uM): induces a G1 arrest | cytotoxicity during G1 arrest ([2]; varying concentrations): without evidence of cytotoxicity | etoposide-induced DNA damage (% γH2AX positive cells) [3]: abrogates etoposide-induced DNA damage
